Results as given in patent US20150218654A1, “METHODS FOR PREDICTING MULTIPLE MYELOMA TREATMENT RESPONSE” (INSERM (INSTITUT NATIONAL DE LA SANTÉ ET DE LA RE- CHERCHE …, priority 2012, published 2015).

Tests used:
[1] = tested on: HMCLs XG-5, XG-6, XG-7, XG-20 and LP1; conditions: 0.5 μM, 7 days, 5 HMCLs
Description: Control cells were cultured in the same conditions without adding drug. […] Biotinylated cRNA was amplified with a double in vitro transcription and hybridized to the human U133 2.0 plus GeneChips, according to the manufacturer's instructions (Affymetrix, Santa Clara, Calif.). Fluorescence intensities were quantified and analyzed using the GECOS software (Affymetrix). Gene expression data were normalized with the MASS algorithm and analyzed with inventor's bioinformatics platforms-RAGE (http://[…] Amazonia (http://amazonia.[…] /) (36)-or SAM (Significance Analysis of Microarrays) software (37). The statistical significance of differences in overall survival between groups of patients was calculated by the log-rank test. Multivariate analysis was performed using the Cox proportional hazards model. Survival curves were plotted using the Kaplan-Meier method. All these analyses have been done with R.2.10.1 (http://www.r-project.org/) and bioconductor version 2.5. Gene annotation and networks were generated through the use of Ingenuity Pathways Analysis (Ingenuity® Systems, Redwood City, Calif.) (38).

[2] = tested on: HMCLs; test: Cell viability of HMCLs by trypan blue exclusion; format: cell-based, human; conditions: five HMCLs, 0.5 μM for 7 days
Description: (§1) The human MM cell lines XG-5, XG-6, XG-7, XG-20 and LP1 were grown in RPMI 1640 supplemented with 10% fetal bovine serum and 2 ng/ml recombinant IL-6. Cells (2×10^5/mL) were treated either with 0.5 μmol/L 5-Aza-2′-deoxycytidine (decitabine) (Sigma, St. Louis, Mo.) for 7 days.

[3] = Cell viability of HMCLs by trypan blue exclusion; format: cell-based, human; conditions: human; for viability at 3 days, 0.5 μM: Day 3, mean ± SD; for viability at 7 days, 0.5 μM: Day 7, mean ± SD
Description: as §1

[4] = LP1 multiple myeloma cells, LP1, 0.5 μM decitabine
[5] = XG-5 multiple myeloma cells, XG-5, 0.5 μM decitabine
[6] = XG-6 multiple myeloma cells, XG-6, 0.5 μM decitabine
[7] = XG-7 multiple myeloma cells, XG-7, 0.5 μM decitabine
[8] = XG-20 multiple myeloma cells, XG-20, 0.5 μM decitabine

Nc1ncn([C@H]2C[C@H](O)[C@@H](CO)O2)c(=O)n1 [decitabine, 5-Aza-2′-deoxycytidine]
number of genes downregulated ([1]; FDR <5%): 79 genes | number of genes significantly upregulated ([1]; FDR <5%): 48 genes | Ratio 226719_at (CDNA FLJ34899 fis) ([1]; treated vs control): 0.53 | Ratio 227755_at (CDNA FLJ42435 fis) ([1]; treated vs control): 0.53 | Ratio 229969_at (Transcribed locus) ([1]; treated vs control): 0.41 | Ratio 230570_at (Transcribed locus) ([1]; treated vs control): 0.37 | Ratio 244623_at (Transcribed locus) ([1]; treated vs control): 0.39 | Ratio ACRC (238825_at) ([1]; treated vs control): 25.99 | Ratio ADFP (209122_at) ([1]; treated vs control): 3.70 | Ratio AIG1 (223136_at) ([1]; treated vs control): 0.41 | Ratio ALDH1L2 (231202_at) ([1]; treated vs control): 0.45 | Ratio ARHGAP9 (224451_x_at) ([1]; treated vs control): 0.38 | Ratio ATP1B1 (201243_s_at) ([1]; treated vs control): 3.43 | Ratio C6orf48 (220755_s_at) ([1]; treated vs control): 0.49 | Ratio C10orf57 (222545_s_at) ([1]; treated vs control): 0.56 | Ratio C12orf5 (219099_at) ([1]; treated vs control): 2.16 | Ratio C17orf27 (230000_at) ([1]; treated vs control): 2.41 | Ratio C20orf118 (235964_x_at) ([1]; treated vs control): 2.12 | Ratio CADPS2 (219572_at) ([1]; treated vs control): 0.37 | Ratio CBS (212816_s_at) ([1]; treated vs control): 0.41 | Ratio CBX4 (227558_at) ([1]; treated vs control): 0.49 | Ratio CCPG1 (214152_at) ([1]; treated vs control): 0.44 | Ratio COP1 (1552701_a_at) ([1]; treated vs control): 2.34 | Ratio COPB2 (213500_at) ([1]; treated vs control): 0.58 | Ratio CORO1A (209083_at) ([1]; treated vs control): 2.38 | Ratio CT45-2 (235700_at) ([1]; treated vs control): 30.39 | Ratio CTAGE5 (215930_s_at) ([1]; treated vs control): 0.30 | Ratio CTBS (218923_at) ([1]; treated vs control): 0.42 | Ratio DHCR7 (201791_s_at) ([1]; treated vs control): 0.45 | Ratio DKFZP586A0522 (207761_s_at) ([1]; treated vs control): 2.97 | Ratio DNAJB9 (1554462_a_at) ([1]; treated vs control): 0.42 | Ratio DPYD (204646_at) ([1]; treated vs control): 0.48 | Ratio DYRK4 (212954_at) ([1]; treated vs control): 0.42 | Ratio EAF2 (219551_at) ([1]; treated vs control): 0.46 | Ratio EIF2C2 (222294_s_at) ([1]; treated vs control): 0.52 | Ratio EIF2S2 (208725_at) ([1]; treated vs control): 0.46 | Ratio ELF4 (31845_at) ([1]; treated vs control): 1.75 | Ratio ELL2 (226982_at) ([1]; treated vs control): 0.45 | Ratio EPSTI1 (227609_at) ([1]; treated vs control): 1.99 | Ratio ERN1 (235745_at) ([1]; treated vs control): 0.35 | Ratio FKBP11 (219118_at) ([1]; treated vs control): 0.38 | Ratio FLJ22028 (219802_at) ([1]; treated vs control): 0.44 | Ratio FNDC3A (202304_at) ([1]; treated vs control): 0.40 | Ratio G1P2 (205483_s_at) ([1]; treated vs control): 2.77 | Ratio GALNT3 (203397_s_at) ([1]; treated vs control): 0.65 | Ratio GLS (203157_s_at) ([1]; treated vs control): 0.42 | Ratio GNG7 (228831_s_at) ([1]; treated vs control): 0.33 | Ratio GOLPH3L (218361_at) ([1]; treated vs control): 0.45 | Ratio GSK3B (226183_at) ([1]; treated vs control): 0.49 | Ratio GSN (200696_s_at) ([1]; treated vs control): 3.97 | Ratio H2-ALPHA (216323_x_at) ([1]; treated vs control): 2.56 | Ratio HBS1L (209314_s_at) ([1]; treated vs control): 0.53 | Ratio HEXIM1 (202814_s_at) ([1]; treated vs control): 2.18 | Ratio HIST1H2BG (210387_at) ([1]; treated vs control): 2.00 | Ratio HLA-DPA1 (211990_at) ([1]; treated vs control): 1.70 | Ratio HN1 (217755_at) ([1]; treated vs control): 2.17 | Ratio ID2 (201565_s_at) ([1]; treated vs control): 2.76 | Ratio IDH1 (1555037_a_at) ([1]; treated vs control): 0.53 | Ratio IER3 (201631_s_at) ([1]; treated vs control): 3.97 | Ratio IFI27 (202411_at) ([1]; treated vs control): 2.84 | Ratio IFI35 (209417_s_at) ([1]; treated vs control): 1.93 | Ratio IFRD1 (202146_at) ([1]; treated vs control): 0.51 | Ratio IGF1 (209541_at) ([1]; treated vs control): 0.43 | Ratio IL21R (221658_s_at) ([1]; treated vs control): 0.50 | Ratio INHBE (210587_at) ([1]; treated vs control): 0.55 | Ratio INSIG1 (201625_s_at) ([1]; treated vs control): 0.34 | Ratio ITGB7 (205718_at) ([1]; treated vs control): 2.11 | Ratio KIAA0776 (212633_at) ([1]; treated vs control): 0.49 | Ratio KIAA1509 (215343_at) ([1]; treated vs control): 2.21 | Ratio KIF21B (204411_at) ([1]; treated vs control): 0.53 | Ratio LOC220930 (229090_at) ([1]; treated vs control): 0.45 | Ratio LRP16 (219188_s_at) ([1]; treated vs control): 0.36 | Ratio MAGEA9 (210437_at) ([1]; treated vs control): 1.68 | Ratio MAN1A1 (221760_at) ([1]; treated vs control): 0.43 | Ratio MANEA (222805_at) ([1]; treated vs control): 0.51 | Ratio MGC15875 (232488_at) ([1]; treated vs control): 0.55 | Ratio MIRN21 (224917_at) ([1]; treated vs control): 1.99 | Ratio MLLT11 (211071_s_at) ([1]; treated vs control): 2.53 | Ratio MTHFD1L (225520_at) ([1]; treated vs control): 0.41 | Ratio MUC1 (207847_s_at) ([1]; treated vs control): 2.92 | Ratio MX1 (202086_at) ([1]; treated vs control): 1.73 | Ratio MYLIP (223129_x_at) ([1]; treated vs control): 2.00 | Ratio NFE2L1 (214179_s_at) ([1]; treated vs control): 0.59 | Ratio NMES1 (223484_at) ([1]; treated vs control): 23.96 | Ratio NMI (203964_at) ([1]; treated vs control): 1.86 | Ratio NQO1 (201468_s_at) ([1]; treated vs control): 2.15 | Ratio OAS1 (205552_s_at) ([1]; treated vs control): 1.65 | Ratio OPN1SW (229549_at) ([1]; treated vs control): 0.40 | Ratio PARP12 (218543_s_at) ([1]; treated vs control): 1.92 | Ratio PCK2 (202847_at) ([1]; treated vs control): 0.47 | Ratio PGM3 (221788_at) ([1]; treated vs control): 0.49 | Ratio PHGDH (201397_at) ([1]; treated vs control): 0.36 | Ratio PLAC1 (219702_at) ([1]; treated vs control): 0.42 | Ratio PPAPDC1B (223569_at) ([1]; treated vs control): 0.42 | Ratio PSCDBP (209606_at) ([1]; treated vs control): 0.48 | Ratio PSPH (205194_at) ([1]; treated vs control): 0.38 | Ratio RECQL (213878_at) ([1]; treated vs control): 0.44 | Ratio RPL37 (224763_at) ([1]; treated vs control): 0.35 | Ratio SAMD9 (228531_at) ([1]; treated vs control): 2.06 | Ratio SCD (200831_s_at) ([1]; treated vs control): 0.39 | Ratio SEC24D (202375_at) ([1]; treated vs control): 0.31 | Ratio SEC63 (201915_at) ([1]; treated vs control): 0.51 | Ratio SEL1L (202061_s_at) ([1]; treated vs control): 0.56 | Ratio SESN2 (223195_s_at) ([1]; treated vs control): 0.47 | Ratio SFN (33322_i_at) ([1]; treated vs control): 4.34 | Ratio SLAMF7 (222838_at) ([1]; treated vs control): 0.51 | Ratio SLC1A4 (209610_s_at) ([1]; treated vs control): 0.54 | Ratio SLC1A5 (208916_at) ([1]; treated vs control): 0.40 | Ratio SLC7A11 (209921_at) ([1]; treated vs control): 0.41 | Ratio SNTB1 (226438_at) ([1]; treated vs control): 0.36 | Ratio SP110 (208012_x_at) ([1]; treated vs control): 2.11 | Ratio SSR3 (217790_s_at) ([1]; treated vs control): 0.40 | Ratio STAT1 (209969_s_at) ([1]; treated vs control): 2.55 | Ratio STCH (202558_s_at) ([1]; treated vs control): 0.47 | Ratio STK17A (202693_s_at) ([1]; treated vs control): 2.52 | Ratio SULT1A3 (210580_x_at) ([1]; treated vs control): 2.52 | Ratio TBC1D16 (222116_s_at) ([1]; treated vs control): 0.70 | Ratio TKTL1 (214183_s_at) ([1]; treated vs control): 85.24 | Ratio TMEM39A (222690_s_at) ([1]; treated vs control): 0.46 | Ratio TMEM49 (1569003_at) ([1]; treated vs control): 2.33 | Ratio TPST2 (204079_at) ([1]; treated vs control): 2.20 | Ratio TRIB3 (218145_at) ([1]; treated vs control): 0.41 | Ratio TSC22D3 (208763_s_at) ([1]; treated vs control): 0.53 | Ratio TUBA2 (210527_x_at) ([1]; treated vs control): 2.50 | Ratio TUBA3 (209118_s_at) ([1]; treated vs control): 2.23 | Ratio TUBB2 (204141_at) ([1]; treated vs control): 5.07 | Ratio TUBE1 (226181_at) ([1]; treated vs control): 0.38 | Ratio ZNF275 (225382_at) ([1]; treated vs control): 0.35 | Ratio ZNF706 (227132_at) ([1]; treated vs control): 0.49 | effect on myeloma cell viability [2]: did not affect myeloma cell viability | viability at 3 days, 0.5 μM [3, 4]: 91 ± 2% | viability at 7 days, 0.5 μM [3, 4]: 86 ± 4% | viability at 3 days, 0.5 μM [3, 5]: 65 ± 5% | viability at 7 days, 0.5 μM [3, 5]: 69 ± 6% | viability at 3 days, 0.5 μM [3, 6]: 90 ± 1% | viability at 7 days, 0.5 μM [3, 6]: 90 ± 1% | viability at 3 days, 0.5 μM [3, 7]: 90 ± 2% | viability at 7 days, 0.5 μM [3, 7]: 85 ± 5% | viability at 3 days, 0.5 μM [3, 8]: 91 ± 3% | viability at 7 days, 0.5 μM [3, 8]: 83 ± 5%
